Tests used:
[1] = test system: normal NK cells expanded with K562-aAPC; test: percent inhibition of viability; higher = more inhibition; conditions: 72 h, IL-2 2.5 ng/mL
Procedure: (§1)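 Drug sensitivity and resistance testing on K562-aAPC-expanded normal NK cells: 5 concentrations (10-fold steps over a 10,000-fold range), 72 h at 37 °C, viability by CellTiter-Glo normalised to DMSO and benzethonium chloride controls; DSS from the fitted curve.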

[2] = test system: normal primary NK cells, pool 1 (3 donors), resting (IL-2 0 ng/mL); test: drug sensitivity score (DSS) (DSS units); higher = more sensitive; extreme values may be limits of the assay; conditions: 72 h
[3] = test system: DERL-7 (IL-2 2.5 ng/mL); test: as above; conditions: 72 h
[4] = test system: normal primary NK cells, pool 3 (3 donors) (IL-2 2.5 ng/mL); test: as above; conditions: 72 h
[5] = test system: KAI3 (IL-2 2.5 ng/mL); test: as above; conditions: 72 h
[6] = test system: YT (IL-2 2.5 ng/mL); test: as above; conditions: 72 h
[7] = test system: KHYG-1 (IL-2 2.5 ng/mL); test: as above; conditions: 72 h
[8] = test system: NK-92 (IL-2 2.5 ng/mL); test: as above; conditions: 72 h
[9] = test system: SNK-6 (IL-2 2.5 ng/mL); test: as above; conditions: 72 h
[10] = test system: normal primary NK cells, pool 2 (3 donors) (IL-2 2.5 ng/mL); test: as above; conditions: 72 h
[11] = test system: NKL (IL-2 2.5 ng/mL); test: as above; conditions: 72 h
[12] = test system: NK-YS (IL-2 2.5 ng/mL); test: as above; conditions: 72 h
[13] = test system: IMC-1 (IL-2 20 ng/mL); test: as above; conditions: 72 h
[14] = test system: normal primary NK cells, pool 1 (3 donors) (IL-2 2.5 ng/mL); test: as above; conditions: 72 h
[15] = test system: normal primary NK cells, pool 1 (3 donors), resting (IL-2 0 ng/mL); test: percent inhibition of viability; higher = more inhibition; conditions: 72 h
[16] = test system: DERL-7 (IL-2 2.5 ng/mL); test: as above; conditions: 72 h
[17] = test system: normal primary NK cells, pool 3 (3 donors) (IL-2 2.5 ng/mL); test: as above; conditions: 72 h
[18] = test system: KAI3 (IL-2 2.5 ng/mL); test: as above; conditions: 72 h
[19] = test system: YT (IL-2 2.5 ng/mL); test: as above; conditions: 72 h
[20] = test system: KHYG-1 (IL-2 2.5 ng/mL); test: as above; conditions: 72 h
[21] = test system: NK-92 (IL-2 2.5 ng/mL); test: as above; conditions: 72 h
[22] = test system: SNK-6 (IL-2 2.5 ng/mL); test: as above; conditions: 72 h
[23] = test system: normal primary NK cells, pool 2 (3 donors) (IL-2 2.5 ng/mL); test: as above; conditions: 72 h
[24] = test system: NKL (IL-2 2.5 ng/mL); test: as above; conditions: 72 h
[25] = test system: NK-YS (IL-2 2.5 ng/mL); test: as above; conditions: 72 h
[26] = test system: IMC-1 (IL-2 20 ng/mL); test: as above; conditions: 72 h
[27] = test system: normal primary NK cells, pool 1 (3 donors) (IL-2 2.5 ng/mL); test: as above; conditions: 72 h
[28] = test system: normal NK cells expanded with K562-aAPC; test: drug sensitivity score (DSS) (DSS units); higher = more sensitive; extreme values may be limits of the assay; conditions: 72 h; IL-2 2.5 ng/mL
Procedure: as §1

COC(=O)c1ccc2c(c1)NC(=O)/C2=C(\Nc1ccc(N(C)C(=O)CN2CCN(C)CC2)cc1)c1ccccc1 [Nintedanib] (max concentration tested 10000 nM)
percent inhibition of viability [%]
Conditions | 1 nM | 10 nM | 100 nM | 1000 nM | 10000 nM
[1] | -0.08 | -2.82 | 8.47 | 31 | 100
[15] | -8.23 | -15.9 | -15.4 | 47 | 94.9
[16] | -8.99 | 0.01 | 2.16 | 38.1 | 100
[17] | -18.1 | -18.2 | -5.82 | 5.55 | 99.6
[18] | -8.46 | -2.04 | 1.37 | 16.4 | 93.4
[19] | -2.16 | -1.03 | -3.64 | 7.19 | 99.3
[20] | -5.39 | -3.23 | -3.31 | 20.3 | 99.6
[21] | -4.93 | 2.39 | -1.05 | 45.4 | 99.4
[22] | 16.6 | 7.57 | -2.75 | -31.8 | 83.2
[23] | -15.7 | -1.56 | -14 | 23.9 | 99.2
[24] | -7.94 | -17.2 | -2.91 | 56.5 | 100
[25] | -4.51 | -2.23 | -3.24 | 20.9 | 99.6
[26] | -8.95 | -2.57 | -11.3 | -22.3 | 100
[27] | -7.78 | -11 | -5.14 | 38.2 | 98.9

Conditions | drug sensitivity score
[2] | 11.1
[3] | 10.7
[4] | 6.33
[5] | 7.87
[6] | 6.61
[7] | 8.76
[8] | 11.3
[9] | 3.37
[10] | 9.18
[11] | 12.3
[12] | 8.84
[13] | 4.45
[14] | 10.6
[28] | 9.6

COc1cc(Nc2ncc3c(n2)-c2ccc(Cl)cc2C(c2c(F)cccc2OC)=NC3)ccc1C(=O)O [Alisertib] (max concentration tested 10000 nM)
percent inhibition of viability [%]
Conditions | 1 nM | 10 nM | 100 nM | 1000 nM | 10000 nM
[1] | -8.29 | -10.5 | 39 | 46 | 63.8
[15] | 4.36 | 18.6 | 7.69 | 21.1 | 47.6
[16] | 3.14 | 3.32 | 73.9 | 65.1 | 72.8
[17] | 4.24 | -4.25 | 17.1 | 4.71 | 23
[18] | -7.42 | 6.5 | 38.4 | 56.8 | 73
[19] | -1.37 | 10.7 | 43.4 | 32.9 | 60.8
[20] | -6.82 | 13.3 | 62.3 | 82.9 | 90.3
[21] | -1.61 | 21.5 | 53.4 | 63.6 | 77.1
[22] | -9.82 | 4.71 | 73.7 | 81.3 | 84.4
[23] | -1.45 | -4.51 | 12.5 | 7.67 | 29.6
[24] | -15.7 | -12.7 | 54.1 | 31.1 | 62.9
[25] | -8.82 | 18.6 | 67.4 | 75.4 | 71.3
[26] | -9.95 | 3 | 42.5 | 76.7 | 88
[27] | -6.59 | 4.27 | 6.91 | 0.99 | 12.4

Conditions | drug sensitivity score
[2] | 5.81
[3] | 23.4
[4] | 1.41
[5] | 16
[6] | 13.6
[7] | 24.4
[8] | 21.1
[9] | 24.9
[10] | 1.95
[11] | 17.9
[12] | 24.5
[13] | 19.8
[14] | 0
[28] | 16.4

O=S(=O)(c1cccc2c(O)nccc12)N1CCCNCC1 [Hydroxyfasudil] (max concentration tested 37500 nM)
percent inhibition of viability [%]
Conditions | 3.75 nM | 37.5 nM | 375 nM | 3750 nM | 37500 nM
[1] | -7.06 | -1.95 | -4.05 | 11.7 | 18.2
[15] | -1.24 | 11.4 | 11.7 | -5.48 | 13.2
[16] | 2.41 | -1.56 | -3.11 | 9.25 | 29.7
[17] | -6.09 | -6.32 | 12.8 | 7.6 | 21.9
[18] | -11.8 | -3.4 | 2.23 | -8.56 | 32.2
[19] | -4.2 | 0.69 | 4.57 | -4.39 | 2.68
[20] | -8.68 | 0.53 | 6.74 | 10.9 | 23
[21] | 2.93 | 2.6 | 5.94 | -2.67 | 19.6
[22] | 2.11 | -9.82 | 10.9 | 4.05 | 52
[23] | -5.27 | -3.13 | -1.92 | 7.54 | 31.2
[24] | 3.67 | 6.42 | 10.9 | 12.7 | 31.9
[25] | -6.95 | -1.93 | 3.17 | -3.19 | 18.9
[26] | -4.78 | -3.11 | 0.96 | 2.27 | 5.47
[27] | -10.4 | -4.9 | -10.6 | -4.54 | 17.3

Conditions | drug sensitivity score
[2] | 0.05
[3] | 2.59
[4] | 1.36
[5] | 1.06
[6] | 0
[7] | 1.61
[8] | 0.43
[9] | 3.39
[10] | 2.54
[11] | 3.11
[12] | 0.37
[13] | 0
[14] | 0.25
[28] | 1.51

CN(C)C/C=C/C(=O)Nc1cc2c(Nc3ccc(F)c(Cl)c3)ncnc2cc1O[C@H]1CCOC1 [Afatinib] (max concentration tested 1000 nM)
percent inhibition of viability [%]
Conditions | 0.1 nM | 1 nM | 10 nM | 100 nM | 1000 nM
[1] | -3.84 | -0.9 | 0.35 | 8.86 | 23.9
[15] | 1.52 | -21.3 | -1.76 | -18.2 | 31.8
[16] | 1.24 | -0.84 | 3.12 | 3.53 | 40.4
[17] | -7.17 | -9.3 | 9.58 | -8.16 | 3.09
[18] | -6.04 | -6.37 | -2.67 | -0.11 | 17.7
[19] | 0.42 | 0.78 | 2.66 | 5.09 | 29.2
[20] | 1.25 | 0.47 | 0.09 | 5.88 | 8.01
[21] | -4.74 | -8.88 | -4.7 | 6.1 | 20
[22] | 5.26 | 23.4 | 23.4 | 27.9 | -1.27
[23] | -9.45 | -8.4 | 7.17 | -5.73 | 18.4
[24] | 4.2 | 5.29 | 8.09 | 15.9 | 30.1
[25] | -6.74 | -1.03 | -0.59 | 1.9 | 17.9
[26] | -4.64 | 0.23 | 3.73 | 0.77 | -7.53
[27] | 0.9 | -20.4 | -8.14 | -16.9 | 17.6

Conditions | drug sensitivity score
[2] | 0.88
[3] | 2.57
[4] | 0
[5] | 0.41
[6] | 2.06
[7] | 0
[8] | 1.32
[9] | 0
[10] | 0.29
[11] | 3.07
[12] | 0.66
[13] | 0
[14] | 0.16
[28] | 1.97

COc1cc2ncnc(Nc3ccc(F)c(Cl)c3)c2cc1OCCCN1CCOCC1 [Gefitinib] (max concentration tested 10000 nM)
percent inhibition of viability [%]
Conditions | 1 nM | 10 nM | 100 nM | 1000 nM | 10000 nM
[1] | -4.93 | -2.95 | -4.74 | 12.3 | 56.2
[15] | -4.9 | -15.9 | -4.48 | -7.6 | 64.4
[16] | 3.62 | -2.09 | 5.77 | 1.47 | 70.4
[17] | -15.3 | -8.24 | 11.2 | -13.2 | 40.1
[18] | 0.49 | -0.54 | -4.64 | 11.8 | 56.9
[19] | -3.09 | 5.08 | 4.23 | 5.38 | 57.6
[20] | -2.54 | 5.78 | 8.11 | 9.75 | 89.9
[21] | -2.12 | 5.54 | -3.03 | 4.12 | 64.8
[22] | 25.8 | 34.7 | 27.6 | 9.98 | 42.4
[23] | -22.1 | -19.1 | 6.35 | 2.61 | 39.1
[24] | -4.33 | -6.47 | -2.03 | 12 | 62.4
[25] | -1.51 | 1.15 | 7.36 | 7.9 | 30.8
[26] | -4.89 | 1.4 | 2.3 | 2.27 | 13.5
[27] | -0.53 | -12.4 | -3.97 | -11.3 | 26.3

Conditions | drug sensitivity score
[2] | 3
[3] | 4.07
[4] | 1.42
[5] | 4.99
[6] | 3.98
[7] | 6.6
[8] | 4.15
[9] | 9.38
[10] | 2.32
[11] | 5.38
[12] | 2.2
[13] | 0.3
[14] | 0.66
[28] | 5.01

— the supplement of paper PMC5908809
